The values below come from paper PMC7416818 (Analytical biochemistry, 2020).

The Ki is the equilibrium dissociation constant of an inhibitor or competing ligand from its target. The term Km denotes the substrate concentration at which the rate is half of its maximum.

Read-outs that look alike come from different tables or passages of the source.

Assay [1] concerns the target T1, NNMT (Homo sapiens, UniProt P40261).
T1 sequence (P40261 1-264): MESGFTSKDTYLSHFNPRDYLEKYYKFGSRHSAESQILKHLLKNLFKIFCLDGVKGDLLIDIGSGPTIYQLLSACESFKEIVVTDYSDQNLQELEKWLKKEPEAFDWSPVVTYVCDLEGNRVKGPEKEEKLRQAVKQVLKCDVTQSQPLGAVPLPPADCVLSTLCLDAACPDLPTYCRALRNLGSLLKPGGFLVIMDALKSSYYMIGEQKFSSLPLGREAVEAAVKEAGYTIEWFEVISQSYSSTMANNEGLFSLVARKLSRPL
To be noted: read-out: Literature value Ki, determined by SAHH coupled assay; cited from earlier work.

Assay [2] addresses T1, NNMT. In words: FP-based competition binding assay with probe II138.
The target of assay [3] is T1, NNMT. To be noted: read-out: Literature value Km; cofactor; cited from earlier work.
Assay [4] addresses T1, NNMT. The assay can be described thus: SAHH-coupled fluorescence assay. Format: biochemical. To be noted: linker effect.

With 1 methyl quinoline [1-MQ], on NNMT [1], the inhibitory constant (Ki) was over 100 µM. `C[S+](CC[C@H](N)C(=O)[O-])C[C@H]1O[C@@H](n2cnc3c(N)ncnc32)[C@H](O)[C@@H]1O` (stereo partly drawn) [AdoMet, S-adenosyl-L-methionine] registered an inhibitory constant (Ki) on NNMT [2] of 20.3 ± 2.9 µM. At NNMT [3], the Km was 24 ± 6.8 µM. Regarding `NC(=O)c1cccnc1` [NAM, nicotinamide], the inhibition constant Ki at NNMT [2] is over 1000 µM; on NNMT [1], over 100 µM. On to `NCCCNc1ncnc2c1ncn2[C@@H]1O[C@H](CN(CC#Cc2cccc(C(N)=O)c2)CC[C@H](N)C(=O)O)[C@@H](O)[C@H]1O` [compound 10], for which, at NNMT [2] (FP Ki versus SAHH-coupled Ki), the “Difference of Ki in FP assay in comparison with SAHH coupled assay” value is “less than 2 fold”. Moreover, the “Loss in Ki in comparison with LL320” value at NNMT [4] is recorded as “about 100 fold”.
